From patent US20100093678A1, “Compositions and methods of the treatment of obesity and osteoporosis” (THE UNIVERSITY OF GEORGIA RESEARCH FOUNDATION, INC, priority 2008, published 2010)
“And” between values parts separate entries of the source, which are not always exact repeats. Equal values may be shown once.

Experiments:
[1] = test system: FXR; test: Western blot, FXR expression in maturing 3T3-L1 preadipocytes; assay type: cell-based, mouse; conditions: for increase in FXR levels: 3.12 μM GS
Experimental: (§1) The protein concentration was determined by BCA assay with bovine serum albumin as the standard. Western blot analysis was performed using the commercial NUPAGE system (Novex/Invitrogen), in which a lithium dodecyl sulfate sample buffer (Tris/glycerol buffer, pH 8.5) was mixed with fresh dithiothreitol and added to samples.
(§2) Measurement of signal intensity on PVDF membranes after Western blotting with various antibodies was performed using a Fluor Chem densitomer with the Alpha-EaseFC image processing and analysis software (Alpha Innotech Corp.). For statistical analysis, all data were expressed as integrated density values (IDV), which were calculated as the density values of the specific protein bands/b-actin density values and expressed as percentage of the control. All figures showing quantitative analysis include data from at least three independent experiments.

[2] = test system: human mesenchymal stem cells (hMSC); test: Osteogenic differentiation of hMSC (ALP activity, calcium deposition, Alizarin red S); assay type: cell-based; conditions: for alp activity: FIG. 8D, osteogenic conditions; for osteogenesis: hMSC cultured under osteogenic conditions; for increased calcium deposition: pretreatment, day 17, XN 5 μM, cGS varying doses
Experimental: Alkaline phosphatase activity (ALP/protein) was measured on day 8. Means that are not denoted with a common letter are different (p<0.001).
(§3) In these further examples, post confluent hMSC were treated with varying doses of cGS or XN in adipogenic induction medium, and lipid deposition and cell viability were measured. Alternatively, pre-confluent hMSC were pre-treated with varying doses of cGS or XN for 3 days prior to addition of osteogenic induction medium. Alkaline phosphatase (ALP) activity was determined 3 days post-induction and indices of mineralization (calcium deposition and Alizarin red S stain) were determined 14-28 days post-induction. […] Inhibition was dose-dependent with ˜50% inhibition observed with 6.5 μM cGS and 0.75 μM XN, respectively. Pretreatment with cGS stimulated osteogenic differentiation in hMSC cultures as indicated by increased ALP activity at day 3 (˜10%; P<0.05) and calcium deposition at day 17 (˜35-60%; P<0.05). Pretreatment with 5 μM XN increased calcium deposition (33%; P<0.05) at day 17.

[3] = test system: maturing 3T3-L1 preadipocytes; test: Apoptosis assay (ApoStrand ssDNA ELISA) in maturing preadipocytes; assay type: cell-based, mouse; conditions: 0.5 nM 1,25(OH)2D3, 3.12 μM GS, alone or combined
Experimental: (§4) 3T3-L1 mouse embryo fibroblasts were obtained from American Type Culture Collection (Manassas, Va.) and were cultured as described elsewhere. Briefly, cells were cultured in DMEM containing 10% bovine calf serum until confluent. Two days after confluence, the cells were stimulated to differentiate with DMEM containing 10% fetal bovine serum (FBS), 167 nM insulin, […], and 1 μM dexamethasone for 2 days. On day 2, differentiation medium was replaced with 10% FBS/DMEM containing 167 nM insulin and incubated for 2 days, followed by culturing with 10% FBS/DMEM for an additional 4 days, at which time >90% of cells were mature adipocytes with accumulated fat droplets. All media contained 1% penicillin streptomycin (10,000 U/ml) and 1% (v/v) 100 mM pyruvate. Cells were maintained at 37° C. in a humidified 5% CO2 atmosphere.
Apoptosis assay. For measuring the extent of apoptosis, the ApoStrand ELISA Apoptosis Detection Kit (Biomol, Plymouth Meeting, Pa.) was used. Cells were grown in 96-well plates and incubated with either vehicle or test reagents for the indicated time periods. Cells were then fixed and assayed as per the manufacturer's instructions. The assay selectively detects single-stranded DNA, which occurs in apoptotic cells but not in necrotic cells or cells with DNA breaks in the absence of apoptosis.

[4] = test system: C/EBPα; test: Western blot, C/EBPα expression in maturing 3T3-L1 preadipocytes; assay type: cell-based, mouse; conditions: 0.5 nM 1,25(OH)2D3, 3.12 μM GS, alone or combined; days 0-6; vs control
Experimental: as §1, §2

[5] = test system: aP2; test: Western blot, aP2 expression in maturing 3T3-L1 preadipocytes; assay type: cell-based, mouse; conditions: 0.5 nM 1,25(OH)2D3, 3.12 μM GS, alone or combined; days 0-6; vs control
Experimental: as §1, §2

[6] = test system: maturing 3T3-L1 preadipocytes; test: Quantification of lipid content (AdipoRed/Nile Red) in maturing preadipocytes; assay type: cell-based, mouse; conditions: 0.5 nM 1,25(OH)2D3 (D0.5), 3.12 μM GS (GS3.12), alone or combined; treated during adipogenic phase, measured day 6
Experimental: as §4
Lipid content was quantified using commercially available AdipoRed™ Assay Reagent. In brief, maturing adipocytes grown in 96-well plates were incubated with vehicle or test compounds during the adipogenic phase and on day 6, culture supernatant was removed and lipid content was quantified by performing AdipoRed™ assay as per the manufacturer's instructions. Treated cells were also stained with Oil Red O and hematoxylin as described by Suryawan and Hu to visualize the lipid content. […]

[7] = test system: PPARγ; test: Western blot, PPARγ expression in maturing 3T3-L1 preadipocytes; assay type: cell-based, mouse; conditions: 0.5 nM 1,25(OH)2D3, 3.12 μM GS, alone or combined; days 0-6; vs control
Experimental: as §1, §2

[8] = test system: human mesenchymal stem cells (hMSC); test: Cell viability in hMSC adipogenic cultures; assay type: cell-based; conditions: adipogenic conditions; varying doses of cGS; XN 1.5-12 μM
Experimental: (§5) In these further examples, post confluent hMSC were treated with varying doses of cGS or XN in adipogenic induction medium, and lipid deposition and cell viability were measured. Alternatively, pre-confluent hMSC were pre-treated with varying doses of cGS or XN for 3 days prior to addition of osteogenic induction medium. Alkaline phosphatase (ALP) activity was determined 3 days post-induction and indices of mineralization (calcium deposition and Alizarin red S stain) were determined 14-28 days post-induction. […] P<0.05). Pretreatment with 5 μM XN increased calcium deposition (33%; P<0.05) at day 17.

[9] = test system: human mesenchymal stem cells (hMSC); test: Lipid deposition / adipogenesis in hMSC under adipogenic conditions; assay type: cell-based; conditions: for adipogenesis (lipid accumulation): hMSC cultured under adipogenic conditions
Experimental: Cells were cultured in adipogenic induction medium and treated with control or the combination of R+Q+G (15 μM each). After 18 days adipogenesis was measured and expressed as % control. […] Means that are not denoted with a common letter are different p<0.05.
as §3

[10] = test system: PPARs; conditions: reference [20]; cited from earlier work
[11] = test system: VDR; test: Western blot, VDR expression in maturing 3T3-L1 preadipocytes; assay type: cell-based, mouse; conditions: any time point (day 1, 4, 6); 3.12 μM GS
Experimental: as §1, §2

[12] = test system: human mesenchymal stem cells (hMSC); test: Cell viability in hMSC osteogenic cultures; assay type: cell-based; conditions: osteogenic conditions; varying doses of cGS; XN 20 μM
Experimental: as §5

[13] = test system: maturing 3T3-L1 preadipocytes; test: Cell viability assay (CellTiter 96) in maturing preadipocytes; assay type: cell-based, mouse; conditions: 0.5 nM 1,25(OH)2D3, 3.12 μM GS, alone or combined; 6 days during adipogenesis
Experimental: as §4
Tests were performed in 96-well plates. Two day postconfluent preadipocytes were treated with differentiation medium containing either vehicle or test compounds for 6 days during adipogenesis. On day 6 the treatment medium was removed and the cell viability assay was performed as per the manufacturer's instructions. The absorbance was measured at 490 nm in a plate reader (μQuant Bio-Tek Instruments, Winooski, Vt.) to determine the formazan concentration, which is proportional to the number of live cells.

Compound: C=C1/C(=C\C=C2/CCC[C@]3(C)[C@@H]([C@H](C)CCCC(C)(C)O)CC[C@@H]23)C[C@@H](O)C[C@@H]1O [1,25(OH)2D3, 1,25-dihydroxy vitamin D3, reference compound]
- effect on FXR levels ([1]; any time point, 0.5 nM 1,25(OH)2D3): no effect
- alp activity [2]: significantly increased alp activity
- increase in apoptosis [3]: 18.4±2.3%
- decrease in expression of C/EBPα [4]: 46.3±3.4% and 46%
- decrease in expression of aP2 [5]: 27.2±4.8%
- decrease in lipid accumulation [6]: 29.3±3.4%
- decrease in expression of PPARγ [7]: 46.2±4.4% and 46%

Compound: C/C=C1\C(=O)C[C@H]2[C@@H]3CCC4=CC(=O)CC[C@]4(C)[C@H]3CC[C@]12C [GS, cis-Guggulsterone]
- effect on FXR expression ([1]; day 1, 3.12 μM GS alone or with 0.5 nM 1,25(OH)2D3): did not have any significant effect
- increase in FXR levels ([1]; day 4): 30.6±9.3%
- increase in FXR levels ([1]; day 6): 64.8±10%
- osteogenesis [2]: promoted osteogenesis
- increased ALP activity ([2]; pretreatment 3 days before osteogenic induction, day 3 post-induction): ~10%
- increased calcium deposition [2]: 35-60%
- cell number (viability) [8]: dose-dependent increase
- increase in apoptosis [3]: did not have any significant effect
- inhibition of lipid deposition ([9]; 6.5 μM cGS, 0.75 μM XN, adipogenic conditions): ~50%
- adipogenesis (lipid accumulation) [9]: reduced adipogenesis
- decrease in expression of C/EBPα [4]: did not significantly alter
- decrease in expression of aP2 [5]: did not significantly alter
- decrease in lipid accumulation [6]: 29.7±2.7%
- decrease in expression of PPARγ [7]: did not significantly alter
- interaction with PPARs [10]: did not interact
- effect on VDR expression [11]: did not significantly alter
- cell number (viability) [12]: dose-dependent increase
- decrease in cell viability [13]: did not have any significant effect

Compound: COc1cc(O)c(CC=C(C)C)c(O)c1C(=O)/C=C/c1ccc(O)cc1 [XN, xanthohumol]
- osteogenesis [2]: promoted osteogenesis
- increased calcium deposition [2]: 33%
- cell number (viability) [8]: increased cell viability dose-dependently
- inhibition at 0.75 µM ([9]; Homo sapiens, Mesenchymal stem cells, 6.5 μM cGS, 0.75 μM XN, adipogenic conditions): ~50%
- adipogenesis (lipid accumulation) [9]: reduced adipogenesis
- cell number (viability) [12]: decreased viability

Compound: O=c1c(-c2ccc(O)cc2)coc2cc(O)cc(O)c12 [genistein, 5,7-Dihydroxy-3-(4-hydroxyphenyl)chromen-4-one]
- alp activity [2]: significantly increased alp activity
- osteogenesis [2]: promoted osteogenesis

Compound: O=c1c(O)c(-c2ccc(O)c(O)c2)oc2cc(O)cc(O)c12 [quercetin, 2-(3,4-dihydroxyphenyl)-3,5,7-trihydroxy-4H-chromen-4-one]
- osteogenesis [2]: promoted osteogenesis
- adipogenesis (lipid accumulation) [9]: reduced adipogenesis

Compound: vitamin D [reference compound]
- osteogenesis [2]: promoted osteogenesis
